Values quoted from earlier work, collected in patent US20260110035A1, “DNA REPAIR SIGNATURE AND PREDICTION OF RESPONSE FOLLOWING CANCER THERAPY” (priority 2022, published 2026).

System: stage II/III TNBC
Conditions: BrighTNess; only carboplatin (Arm B) vs veliparib+carboplatin (Arm A), with paclitaxel followed by AC

Structure (SMILES): N.N.O=C([O-])C1(C(=O)[O-])CCC1.[Pt+2] [carboplatin]
- difference in pCR rates between Arm B and Arm A: no substantial difference
